Data: patent US20080311126A1, “Antisense Oligonucleotides Directed to Ribonucleotide Reducatase R2 and Uses Thereof in Combination Therapies for the Treatment of Cancer” (Genesense Technologies, Inc, priority 2004, published 2008)
Oligonucleotides are written 5' to 3', each unit as a sugar letter and its base; * is a phosphorothioate linkage, no mark a phosphodiester; rarer units and linkages stand in square brackets, end groups in braces. Plain capitals give the bases only. d = 2'-deoxy (DNA)

Experiments:
Type in all cases: cell-based, human
[1] = tested on: T24 bladder cell carcinoma; assay: Relative colony forming efficiency (Example 17, Table 13); settings: averages of 2-8 determinations
In short: (§1)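 Phosphorothioate antisense oligodeoxynucleotides, at 0.2 μM unless otherwise indicated, were applied with 2.5 μg DOTMA/DOPE (Lipofectin) for 4 h. Colonies stained with methylene blue and scored, with viability sometimes checked by trypan blue exclusion. Values given as % inhibition of colony formation relative to lipofectin-only controls.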

[2] = tested on: HCT116 colon cell carcinoma; assay: as above; settings: averages of 2-8 determinations
In short: as §1

[3] = tested on: T-47D breast ductal carcinoma; assay: as above; settings: averages of 2-8 determinations
In short: as §1

[4] = tested on: HepG2 hepatocellular carcinoma; assay: as above; settings: averages of 2-8 determinations
In short: as §1

[5] = tested on: PC-3 prostrate cell adenocarcinoma; assay: as above; settings: averages of 2-8 determinations
In short: as §1

[6] = tested on: MDA PaCa-2 pancreatic cell carcinoma; assay: as above; settings: MIA PaCa-2 pancreatic cell carcinoma, averages of 2-8 determinations
In short: as §1

A549 lung cell carcinoma = assay: as above; settings: averages of 2-8 determinations
In short: as §1

Hela S3 cells = assay: Relative colony forming efficiency, lipofectin +/- oligonucleotide 4 hours; settings: Hela S3 cervix carcinoma cells; averages of 2-8 determinations
Description: Colony forming efficiency was determined using standard protocols. Briefly, the cells were cultured for 24 hours at 37° C. in growth medium with 10% fetal bovine serum. The cells were washed in 5 ml phosphate buffered saline, pH 7.2, once prior to lipofectin +/−oligonucleotide treatment.
The test oligonucleotides were added to cell cultures in the presence of 2.5 μg of DOTMA/DOPE (Lipofectin; Life Technologies, Inc.) for four hours. The oligonucleotide was tested at 0.2 μM unless otherwise indicated. Controls were the cultures treated with lipofectin but without the oligonucleotide. After 4 hours the medium containing the oligonucleotide was removed and washed with 5 ml of growth medium. The cells were then cultured in growth medium containing 10% fetal bovine serum for seven to ten days. Surviving cells were visualized by methylene blue staining, and colonies were scored. In some experiments cell aliquots were removed from the culture and viability was determined using the trypan blue exclusion test. Results were analyzed as percent of surviving cells compared to control cells.
AS-II-336-20 was tested for the ability to inhibit the proliferation of human tumour cells (Hela). Hela S3 cells (American Type Culture Collection, Rockville, Md., ATCC), and a Hela cell line (Hela 1 mM) previously selected for resistance to the antitumour agent, hydroxyurea, were tested (see results in Table 11). Two experiments were undertaken with Hela S3 cells. […] The same experiment was repeated with the Hela 1 mM cell line and with varying concentrations of the antisense construct AS-II-336-20 (see results in Table 11) with similar results, […] was an effective concentration for inhibiting colony formation.
To test the antisense effects of many of these sequences as phosphorthioate deoxyribonucleotides, they were examined in relative colony forming experiments conducted as described in Example 16 with a series of human tumour cell lines. The results (shown as % inhibition of colony forming ability) obtained with cancer cells derived from the bladder, breast, lung, colon, pancreas, prostate, liver and cervix, are shown in Table 13. The specific cell lines employed are as follows:
T24=bladder cell carcinoma HCT116=colon cell carcinoma A549=lung cell carcinoma MDA-MB-231=breast cell adenocarcinoma […]=pancreatic cell carcinoma PC-3=prostrate cell adenocarcinoma HepG2=hepatocellular carcinoma HeLaS3=cells isolated from a carcinoma of the cervix T-47D=breast ductal carcinoma H596=lung adenosquamous carcinoma cells Colo320=colon cell adenocarcinoma

[7] = tested on: MDA-MB-231 breast cell adenocarcinoma; assay: Relative colony forming efficiency (Example 17, Table 13); settings: averages of 2-8 determinations
In short: as §1

Sequence | Reduced relative colony forming efficiency, T24 (% inhibition of colony forming ability) [1] | Reduced relative colony forming efficiency, HCT116 (% inhibition of colony forming ability) [2] | Reduced relative colony forming efficiency, T-47D (% inhibition of colony forming ability) [3] | Reduced relative colony forming efficiency, HepG2 (% inhibition of colony forming ability) [4] | Reduced relative colony forming efficiency, PC-3 (% inhibition of colony forming ability) [5] | Reduced relative colony forming efficiency, MIA PaCa-2 (% inhibition of colony forming ability) [6] | Reduced relative colony forming efficiency, A549 (% inhibition of colony forming ability) (A549 lung cell carcinoma) | Reduced relative colony forming efficiency, Hela S3 (% inhibition of colony forming ability) (Hela S3 cells) | Reduced relative colony forming efficiency, MDA-MB-231 (% inhibition of colony forming ability) [7] | Reduced relative colony forming efficiency, T24 (% inhibition of colony forming ability) ([1]; listed as AS-II-75-20 *) | Reduced relative colony forming efficiency, HepG2 (% inhibition of colony forming ability) ([4]; listed as AS-II-75-20 *) | Reduced relative colony forming efficiency, PC-3 (% inhibition of colony forming ability) ([5]; listed as AS-II-75-20 *) | Reduced relative colony forming efficiency, MDA-MB-231 (% inhibition of colony forming ability) ([7]; listed as AS-II-75-20 *) | Reduced relative colony forming efficiency, MIA PaCa-2 (% inhibition of colony forming ability) ([6]; listed as AS-II-75-20 *)
GCTCCCACATATGAAAACTC (antisense dG*dC*dT*dC*dC*dC*dA*dC*dA*dT*dA*dT*dG*dA*dA*dA*dA*dC*dT*dC) [AS-II-2229A-20] | 50.34% | 93.01% | 58.82% | 73.26% | 89.58% | 33.61% | 69.72% | 63.15% | – | – | – | – | – | –
TCCTCGGCGGTCCAAA (antisense dT*dC*dC*dT*dC*dG*dG*dC*dG*dG*dT*dC*dC*dA*dA*dA) [AS-II-496-16] | 78.48% | 70.85% | 10.79% | 54.8% | 88.84% | – | 74.45% | 52.21% | 45.8% | – | – | – | – | –
CCCAGTTCCAGCATAAGTCT (antisense dC*dC*dC*dA*dG*dT*dT*dC*dC*dA*dG*dC*dA*dT*dA*dA*dG*dT*dC*dT) [AS-II-1182-20] | 94.51% | 88.13% | 92.41% | 92.23% | 92.76% | 84.72% | 80.06% | 90.61% | – | – | – | – | – | –
CGCGCGCTCCCGGCCCTTCC (listed as DNA, chemistry not fully specified) [AS-II-75-20] | 95.83% | 44.4% | 32.95% | 97.89% | 83.46% | 52.07% | 60.08% | 93.01% | 95.14% | 73.42% | 35.4% | 68.25% | 49.3% | 97.38%
AAAACCTTGCTAAAACCCAG (antisense dA*dA*dA*dA*dC*dC*dT*dT*dG*dC*dT*dA*dA*dA*dA*dC*dC*dC*dA*dG) [AS-II-1197-20] | 90.3% | 84.85% | 81.95% | 76.32% | 74.4% | 70.68% | 89.15% | 82.68% | 50.35% | – | – | – | – | –
